In article PMC7265341, “Quantifying CDK inhibitor selectivity in live cells” (Nature Communications, 2020):
Read-outs that look alike come from different tables or passages of the source.

Columns and labels:
[1] = biological target: CDK19/Cyclin C (Homo sapiens, UniProt Q9BWU1); experiment: NanoBRET live-cell target engagement, NanoLuc-CDK19/Cyclin C in HEK-293; conditions: read-out: Inhibition at 10µM (%), CDK19/C
[2] = biological target: CDK15/Cyclin Y (Homo sapiens, UniProt Q96Q40); experiment: NanoBRET live-cell target engagement, NanoLuc-CDK15/Cyclin Y in HEK-293; format: binding; conditions: CDK15/Y; for IC50: read-out: IC50; for inhibition at 10 µM: read-out: Inhibition at 10µM (%)
CDK15/Cyclin Y, sequence (Q96Q40 whole entry): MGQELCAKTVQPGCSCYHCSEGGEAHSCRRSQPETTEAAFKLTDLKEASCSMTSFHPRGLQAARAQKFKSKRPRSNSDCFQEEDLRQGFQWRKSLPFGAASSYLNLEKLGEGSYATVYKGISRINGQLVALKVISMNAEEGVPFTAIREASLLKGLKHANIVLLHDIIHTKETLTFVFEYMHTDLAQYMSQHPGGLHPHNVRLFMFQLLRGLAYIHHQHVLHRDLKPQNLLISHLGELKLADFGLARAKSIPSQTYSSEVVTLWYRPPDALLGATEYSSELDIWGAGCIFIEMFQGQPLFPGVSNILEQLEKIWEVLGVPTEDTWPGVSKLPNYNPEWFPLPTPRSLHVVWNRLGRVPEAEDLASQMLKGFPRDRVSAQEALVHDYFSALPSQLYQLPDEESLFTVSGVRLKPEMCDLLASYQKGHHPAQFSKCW
CDK15/Cyclin Y, sequence (Q8ND76 whole entry partner): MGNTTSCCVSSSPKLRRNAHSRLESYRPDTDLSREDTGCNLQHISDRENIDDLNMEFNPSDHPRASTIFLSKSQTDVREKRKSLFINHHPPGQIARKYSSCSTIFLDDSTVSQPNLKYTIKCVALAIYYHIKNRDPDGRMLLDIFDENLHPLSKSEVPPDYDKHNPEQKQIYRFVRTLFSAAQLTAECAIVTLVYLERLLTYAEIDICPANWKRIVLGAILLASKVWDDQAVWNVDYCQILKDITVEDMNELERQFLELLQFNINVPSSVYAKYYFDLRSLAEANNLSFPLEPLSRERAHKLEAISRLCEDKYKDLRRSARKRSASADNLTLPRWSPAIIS

[3] = biological target: CDK3/Cyclin E1 (Homo sapiens, UniProt Q00526); experiment: NanoBRET live-cell target engagement, CDK3-NanoLuc/Cyclin E1 in HEK-293; format: binding; conditions: CDK3/E1, read-out: Inhibition at 10µM (%)
CDK3/Cyclin E1, sequence (Q00526 whole entry): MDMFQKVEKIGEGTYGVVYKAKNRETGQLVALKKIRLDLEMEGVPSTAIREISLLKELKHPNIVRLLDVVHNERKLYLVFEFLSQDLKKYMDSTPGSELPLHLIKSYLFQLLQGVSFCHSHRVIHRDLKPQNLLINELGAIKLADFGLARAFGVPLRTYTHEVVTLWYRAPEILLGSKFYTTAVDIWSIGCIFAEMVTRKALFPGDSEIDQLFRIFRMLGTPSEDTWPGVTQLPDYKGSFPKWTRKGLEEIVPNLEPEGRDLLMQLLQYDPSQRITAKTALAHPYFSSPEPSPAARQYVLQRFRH
CDK3/Cyclin E1, sequence (P24864 whole entry partner): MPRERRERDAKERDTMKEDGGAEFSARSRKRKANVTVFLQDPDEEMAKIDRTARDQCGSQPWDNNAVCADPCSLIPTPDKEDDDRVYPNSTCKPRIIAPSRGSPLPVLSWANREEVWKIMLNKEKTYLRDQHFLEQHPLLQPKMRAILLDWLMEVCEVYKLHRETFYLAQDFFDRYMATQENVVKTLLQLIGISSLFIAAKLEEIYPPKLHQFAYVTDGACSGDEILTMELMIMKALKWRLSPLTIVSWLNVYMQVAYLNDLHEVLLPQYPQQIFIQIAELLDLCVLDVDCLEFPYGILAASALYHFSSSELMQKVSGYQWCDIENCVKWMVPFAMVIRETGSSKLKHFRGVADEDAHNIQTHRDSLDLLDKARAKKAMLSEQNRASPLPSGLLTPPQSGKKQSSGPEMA

[4] = biological target: CDK13/Cyclin K (Homo sapiens, UniProt Q14004); experiment: NanoBRET live-cell target engagement, CDK13-NanoLuc/Cyclin K in HEK-293; format: binding; conditions: CDK13/K, read-out: Inhibition at 10µM (%)
[5] = biological target: CDK4/Cyclin D1 (Homo sapiens, UniProt P11802); experiment: NanoBRET live-cell target engagement, NanoLuc-CDK4/Cyclin D1 in HEK-293; format: binding; conditions: CDK4/D1, read-out: Inhibition at 10µM (%)
CDK4/Cyclin D1, sequence (P11802 whole entry): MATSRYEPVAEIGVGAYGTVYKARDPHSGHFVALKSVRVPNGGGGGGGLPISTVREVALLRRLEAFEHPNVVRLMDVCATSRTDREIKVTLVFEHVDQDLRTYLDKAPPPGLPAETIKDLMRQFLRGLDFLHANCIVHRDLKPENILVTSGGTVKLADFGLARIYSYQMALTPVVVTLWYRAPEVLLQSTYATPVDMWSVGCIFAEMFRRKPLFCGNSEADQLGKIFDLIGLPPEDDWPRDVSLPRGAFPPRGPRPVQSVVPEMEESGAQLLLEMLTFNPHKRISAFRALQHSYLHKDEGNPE
CDK4/Cyclin D1, sequence (P24385 whole entry partner): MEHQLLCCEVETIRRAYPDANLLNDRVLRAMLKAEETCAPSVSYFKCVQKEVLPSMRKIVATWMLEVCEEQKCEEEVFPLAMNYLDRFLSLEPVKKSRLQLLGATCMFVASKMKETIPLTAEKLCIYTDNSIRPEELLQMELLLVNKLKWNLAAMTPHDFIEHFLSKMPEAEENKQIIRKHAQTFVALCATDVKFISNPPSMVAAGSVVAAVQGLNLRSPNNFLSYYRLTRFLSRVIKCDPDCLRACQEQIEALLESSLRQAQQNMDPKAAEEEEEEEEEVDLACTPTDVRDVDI

[6] = biological target: CDK20/Cyclin H (Homo sapiens, UniProt Q8IZL9); experiment: NanoBRET live-cell target engagement, NanoLuc-CDK20/Cyclin H in HEK-293; format: binding; conditions: CDK20/H, read-out: Inhibition at 10µM (%)
[7] = biological target: CDK14/Cyclin Y (Homo sapiens, UniProt O94921); experiment: NanoBRET live-cell target engagement, CDK14-NanoLuc/Cyclin Y in HEK-293; format: binding; conditions: CDK14/Y, read-out: Inhibition at 10µM (%)
CDK14/Cyclin Y, sequence (O94921 whole entry): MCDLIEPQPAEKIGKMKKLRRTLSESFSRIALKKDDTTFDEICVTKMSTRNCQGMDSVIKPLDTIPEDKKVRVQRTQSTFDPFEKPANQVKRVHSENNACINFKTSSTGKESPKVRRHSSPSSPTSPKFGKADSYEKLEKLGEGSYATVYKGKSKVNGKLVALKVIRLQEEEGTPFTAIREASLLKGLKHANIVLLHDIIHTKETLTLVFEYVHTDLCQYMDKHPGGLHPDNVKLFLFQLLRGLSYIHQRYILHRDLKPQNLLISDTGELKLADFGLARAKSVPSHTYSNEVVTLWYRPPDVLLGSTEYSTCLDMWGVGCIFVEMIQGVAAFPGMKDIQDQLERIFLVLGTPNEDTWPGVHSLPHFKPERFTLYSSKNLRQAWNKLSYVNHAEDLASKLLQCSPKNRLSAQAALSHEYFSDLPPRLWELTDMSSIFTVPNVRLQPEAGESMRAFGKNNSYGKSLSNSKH
CDK14/Cyclin Y, sequence (Q8ND76 whole entry partner): as the sequence (Q8ND76 whole entry partner) above

[8] = biological target: CDK11B/Cyclin L2 (Homo sapiens, UniProt P21127); experiment: NanoBRET live-cell target engagement, CDK11B-NanoLuc/Cyclin L2 in HEK-293; format: binding; conditions: CDK11b/L2, read-out: Inhibition at 10µM (%)
CDK11B/Cyclin L2, sequence (P21127 1-782 isoform P21127-2): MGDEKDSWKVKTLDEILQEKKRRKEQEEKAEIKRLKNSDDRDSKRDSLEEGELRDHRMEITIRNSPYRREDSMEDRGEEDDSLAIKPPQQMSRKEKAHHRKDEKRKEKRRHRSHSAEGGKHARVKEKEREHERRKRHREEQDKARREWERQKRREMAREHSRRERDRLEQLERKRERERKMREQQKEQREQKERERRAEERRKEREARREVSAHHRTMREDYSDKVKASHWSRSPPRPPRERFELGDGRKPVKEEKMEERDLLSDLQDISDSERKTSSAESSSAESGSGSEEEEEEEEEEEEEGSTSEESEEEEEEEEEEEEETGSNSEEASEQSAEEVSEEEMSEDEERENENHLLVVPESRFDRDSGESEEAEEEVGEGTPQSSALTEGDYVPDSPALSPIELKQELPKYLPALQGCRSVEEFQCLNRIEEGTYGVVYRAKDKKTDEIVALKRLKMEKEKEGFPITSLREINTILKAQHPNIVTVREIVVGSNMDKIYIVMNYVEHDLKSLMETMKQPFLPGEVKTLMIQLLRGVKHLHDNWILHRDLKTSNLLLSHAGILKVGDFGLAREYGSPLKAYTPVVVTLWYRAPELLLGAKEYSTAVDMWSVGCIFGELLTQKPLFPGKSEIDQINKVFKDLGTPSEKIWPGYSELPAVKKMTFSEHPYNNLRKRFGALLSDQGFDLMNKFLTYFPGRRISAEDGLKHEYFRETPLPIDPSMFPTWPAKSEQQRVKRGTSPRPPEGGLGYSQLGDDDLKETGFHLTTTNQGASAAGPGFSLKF

[9] = biological target: CDK5/CDK5R1 (Homo sapiens, UniProt Q00535); experiment: NanoBRET live-cell target engagement, CDK5-NanoLuc/CDK5R1 in HEK-293; format: binding; conditions: CDK5/CDK5R1, read-out: Inhibition at 10µM (%)
CDK5/CDK5R1, sequence (Q00535 whole entry): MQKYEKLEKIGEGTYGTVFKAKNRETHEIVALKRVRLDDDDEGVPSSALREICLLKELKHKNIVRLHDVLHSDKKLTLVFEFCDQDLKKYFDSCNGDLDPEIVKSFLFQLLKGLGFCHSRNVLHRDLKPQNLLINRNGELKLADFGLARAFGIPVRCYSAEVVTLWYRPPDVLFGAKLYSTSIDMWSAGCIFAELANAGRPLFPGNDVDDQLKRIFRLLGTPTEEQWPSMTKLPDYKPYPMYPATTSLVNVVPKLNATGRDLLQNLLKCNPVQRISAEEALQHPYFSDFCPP
CDK5/CDK5R1, sequence (Q15078 whole entry partner): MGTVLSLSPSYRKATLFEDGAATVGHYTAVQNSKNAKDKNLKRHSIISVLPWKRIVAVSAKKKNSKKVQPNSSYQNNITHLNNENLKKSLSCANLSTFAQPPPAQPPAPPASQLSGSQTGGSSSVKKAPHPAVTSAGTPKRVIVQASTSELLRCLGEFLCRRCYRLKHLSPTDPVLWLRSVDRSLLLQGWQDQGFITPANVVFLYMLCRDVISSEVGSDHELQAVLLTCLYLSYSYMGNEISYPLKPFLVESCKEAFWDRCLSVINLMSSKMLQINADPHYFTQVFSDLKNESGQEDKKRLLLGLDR

[10] = biological target: CDK17/Cyclin Y (Homo sapiens, UniProt Q00537); experiment: NanoBRET live-cell target engagement, CDK17-NanoLuc/Cyclin Y in HEK-293; format: binding; conditions: CDK17/Y, read-out: Inhibition at 10µM (%)
CDK17/Cyclin Y, sequence (Q00537 whole entry): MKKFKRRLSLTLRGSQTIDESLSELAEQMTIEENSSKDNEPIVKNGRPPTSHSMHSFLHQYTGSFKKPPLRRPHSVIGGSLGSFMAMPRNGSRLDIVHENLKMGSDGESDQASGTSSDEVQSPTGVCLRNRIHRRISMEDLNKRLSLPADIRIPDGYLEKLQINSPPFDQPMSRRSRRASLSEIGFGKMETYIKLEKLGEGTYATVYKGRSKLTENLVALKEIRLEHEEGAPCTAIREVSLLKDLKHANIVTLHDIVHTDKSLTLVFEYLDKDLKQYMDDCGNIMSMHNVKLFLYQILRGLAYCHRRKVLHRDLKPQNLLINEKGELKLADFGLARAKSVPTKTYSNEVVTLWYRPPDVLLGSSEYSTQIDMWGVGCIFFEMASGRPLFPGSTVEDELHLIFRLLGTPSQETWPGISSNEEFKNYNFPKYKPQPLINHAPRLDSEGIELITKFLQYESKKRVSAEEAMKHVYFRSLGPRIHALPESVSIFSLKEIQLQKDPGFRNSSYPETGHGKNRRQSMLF
CDK17/Cyclin Y, sequence (Q8ND76 whole entry partner): as the sequence (Q8ND76 whole entry partner) above

[11] = biological target: CDK7 (Homo sapiens, UniProt P50613); experiment: NanoBRET live-cell target engagement, NanoLuc-CDK7 in HEK-293; format: binding; conditions: CDK7, read-out: Inhibition at 10µM (%)
[12] = biological target: CDK12/Cyclin K (Homo sapiens, UniProt Q9NYV4); experiment: NanoBRET live-cell target engagement, CDK12-NanoLuc/Cyclin K in HEK-293; format: binding
[13] = biological target: CDK2/Cyclin E1 (Homo sapiens, UniProt P24941); experiment: NanoBRET live-cell target engagement, CDK2-NanoLuc/Cyclin E1 in HEK-293; format: binding; conditions: CDK2/E1, read-out: Inhibition at 10µM (%)
[14] = biological target: CDK18/Cyclin Y (Homo sapiens, UniProt Q07002); experiment: NanoBRET live-cell target engagement, CDK18-NanoLuc/Cyclin Y in HEK-293; format: binding; conditions: CDK18/Y, read-out: Inhibition at 10µM (%)
[15] = biological target: CDK16/Cyclin Y (Homo sapiens, UniProt Q00536); experiment: NanoBRET live-cell target engagement, CDK16-NanoLuc/Cyclin Y in HEK-293; format: binding; conditions: CDK16/Y; for IC50: read-out: IC50; for inhibition at 10 µM: read-out: Inhibition at 10µM (%)
[16] = biological target: CDK9/Cyclin K (Homo sapiens, UniProt P50750); experiment: NanoBRET live-cell target engagement, NanoLuc-CDK9/Cyclin K in HEK-293; format: binding; conditions: CDK9/K, read-out: Inhibition at 10µM (%)
[17] = biological target: CDK8/Cyclin C (Homo sapiens, UniProt P49336); experiment: NanoBRET live-cell target engagement, NanoLuc-CDK8/Cyclin C in HEK-293; format: binding; conditions: CDK8/C, read-out: Inhibition at 10µM (%)
[18] = biological target: CDK10/Cyclin L2 (Homo sapiens, UniProt Q15131); experiment: NanoBRET live-cell target engagement, CDK10-NanoLuc/Cyclin L2 in HEK-293; conditions: read-out: Inhibition at 10µM (%), CDK10/L2
CDK10/Cyclin L2, sequence (Q15131 whole entry): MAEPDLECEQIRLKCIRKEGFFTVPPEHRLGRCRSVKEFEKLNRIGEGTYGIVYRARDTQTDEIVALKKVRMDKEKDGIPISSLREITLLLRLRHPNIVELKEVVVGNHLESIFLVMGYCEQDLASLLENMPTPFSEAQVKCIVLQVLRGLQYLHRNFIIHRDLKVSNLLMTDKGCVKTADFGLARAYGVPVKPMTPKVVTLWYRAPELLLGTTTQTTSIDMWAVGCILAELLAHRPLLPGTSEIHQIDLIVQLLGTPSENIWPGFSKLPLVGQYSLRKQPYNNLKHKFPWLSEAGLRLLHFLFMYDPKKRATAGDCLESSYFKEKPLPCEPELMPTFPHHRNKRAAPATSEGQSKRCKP

[19] = biological target: CDK1/Cyclin E1 (Homo sapiens, UniProt P06493); experiment: NanoBRET live-cell target engagement, CDK1-NanoLuc/Cyclin E1 in HEK-293; format: binding; conditions: CDK1/E1, read-out: Inhibition at 10µM (%)
[20] = biological target: CDK6/Cyclin D1 (Homo sapiens, UniProt Q00534); experiment: NanoBRET live-cell target engagement, NanoLuc-CDK6/Cyclin D1 in HEK-293; format: binding; conditions: for inhibition at 10 µM: read-out: Inhibition at 10µM (%)

CNC(=O)c1nn(C)c2c1C(C)(C)Cc1cnc(Nc3ccc(N4CCN(C)CC4)cc3)nc1-2 [Milciclib]
inhibition at 10 µM ([1]; average): 19.2% | inhibition at 10 µM ([1]; experiment 1): 44.9% | inhibition at 10 µM ([1]; experiment 2): -6.6% | IC50 ([2]; average (± SEM where n=3)): 880 ± 60 nM | inhibition at 10 µM ([2]; average): 86% | IC50 ([2]; experiment 1): 970 nM | inhibition at 10 µM ([2]; experiment 1): 83.8% | IC50 ([2]; experiment 2): 898 nM | inhibition at 10 µM ([2]; experiment 2): 88.1% | IC50 ([2]; experiment 3): 778 nM | inhibition at 10 µM ([3]; average): 77.7% | inhibition at 10 µM ([3]; experiment 1): 74.4% | inhibition at 10 µM ([3]; experiment 2): 80.9% | inhibition at 10 µM ([4]; average): 13.7% | inhibition at 10 µM ([4]; experiment 1): 15% | inhibition at 10 µM ([4]; experiment 2): 12.5% | inhibition at 10 µM ([5]; average): 98.1% | inhibition at 10 µM ([5]; experiment 1): 98.8% | inhibition at 10 µM ([5]; experiment 2): 97.4% | inhibition at 10 µM ([6]; experiment 1): 50.1% | inhibition at 10 µM ([6]; experiment 2): 36.3% | inhibition at 10 µM ([7]; average): 74.3% | inhibition at 10 µM ([7]; experiment 1): 71.9% | inhibition at 10 µM ([7]; experiment 2): 76.8% | inhibition at 10 µM ([8]; average): 14.4% | inhibition at 10 µM ([8]; experiment 1): 14.6% | inhibition at 10 µM ([8]; experiment 2): 14.3% | inhibition at 10 µM ([9]; average): 82.1% | inhibition at 10 µM ([9]; experiment 1): 77.8% | inhibition at 10 µM ([9]; experiment 2): 86.4% | inhibition at 10 µM ([10]; average): 87.8% | inhibition at 10 µM ([10]; experiment 1): 86.7% | inhibition at 10 µM ([10]; experiment 2): 88.9% | inhibition at 10 µM ([11]; average): 92.1% | inhibition at 10 µM ([11]; experiment 1): 89.4% | inhibition at 10 µM ([11]; experiment 2): 94.8% | inhibition at 10 µM ([12]; CDK12/K, experiment 1, read-out: Inhibition at 10µM (%)): 16.8% | inhibition at 10 µM ([12]; CDK12/K, experiment 2, read-out: Inhibition at 10µM (%)): 10.6% | inhibition at 10 µM ([12]; read-out: Inhibition at 10µM (%), CDK12/K, average): 13.7% | inhibition at 10 µM ([13]; average): 76.6% | inhibition at 10 µM ([13]; experiment 1): 75.5% | inhibition at 10 µM ([13]; experiment 2): 77.7% | inhibition at 10 µM ([14]; average): 84.2% | inhibition at 10 µM ([14]; experiment 1): 83.1% | inhibition at 10 µM ([14]; experiment 2): 85.3% | IC50 ([15]; average (± SEM where n=3)): 300 ± 40 nM | IC50 ([15]; experiment 1): 383 nM | inhibition at 10 µM ([15]; experiment 1): 86.4% | IC50 ([15]; experiment 2): 260 nM | inhibition at 10 µM ([15]; experiment 2): 90.1% | IC50 ([15]; experiment 3): 273 nM | inhibition at 10 µM ([16]; average): 55.3% | inhibition at 10 µM ([16]; experiment 1): 50.1% | inhibition at 10 µM ([16]; experiment 2): 60.5% | inhibition at 10 µM ([17]; average): 16% | inhibition at 10 µM ([17]; experiment 1): 44.2% | inhibition at 10 µM ([17]; experiment 2): -12.1% | inhibition at 10 µM ([18]; average): 30.6% | inhibition at 10 µM ([18]; experiment 1): 32.3% | inhibition at 10 µM ([18]; experiment 2): 28.9% | inhibition at 10 µM ([19]; average): 61.1% | inhibition at 10 µM ([19]; experiment 1): 52.9% | inhibition at 10 µM ([19]; experiment 2): 69.2% | IC50 ([20]; CDK6/D1, average (± SEM where n=3), read-out: IC50): 110 ± 20 nM | inhibition at 10 µM ([20]; CDK6/D1, average): 96.3% | IC50 ([20]; CDK6/D1, experiment 1, read-out: IC50): 110 nM | inhibition at 10 µM ([20]; CDK6/D1, experiment 1): 96.1% | IC50 ([20]; CDK6/D1, experiment 2, read-out: IC50): 83 nM | inhibition at 10 µM ([20]; CDK6/D1, experiment 2): 96.5% | IC50 ([20]; CDK6/D1, experiment 3, read-out: IC50): 144 nM | IC50 ([20]; live HEK-293, 2 h, mean ± S.E.M. (n=3) or mean (n=2), read-out: IC50 for CDK/cyclin complexes, CDK6/D1): 110 ± 20 nM
